Source: ChEMBL document CHEMBL5143730, “Structure-Based Design, Optimization, and Development of [18F]LU13: A Novel Radioligand for Cannabinoid Receptor Type 2 Imaging in the Brain with PET” (J Med Chem, 2022)

Legend:
Cannabinoid receptor 1 = Cannabinoid receptor 1 (Homo sapiens, UniProt P21554); experiment: Displacement of [3H]-SR141716A from recombinant human CB1 receptor expressed in CHO cells membrane incubated for 90 mins; format: cell membranes
Homo sapiens [1] = species on record: Homo sapiens; experiment: Selectivity ratio of Ki for human CB1 receptor to Ki for human CB2 receptor
Cannabinoid receptor 2 [2] = molecular target: T1, Cannabinoid receptor 2 (Homo sapiens, UniProt P34972); experiment: Displacement of [3H]-WIN55212-2 from human CB2 receptor transfected in CHO cells membrane incubated for 90 mins; format: cell membranes
Homo sapiens [3] = species on record: Homo sapiens; experiment: Selectivity ratio of Ki for displacement of [3H]-SR141716A from human CB1 receptor to Ki for displacement of [3H]-WIN55212-2 from human CB2 receptor
Cannabinoid receptor 2 [4] = molecular target: T2, Cannabinoid receptor 2 (Rattus norvegicus, UniProt Q9QZN9); experiment: Displacement of [18F]-LU13 from rat spleen CB2 receptor incubated for 90 mins by competitive radioligand binding assay; format: tissue-based
T2 sequence (Q9QZN9 whole entry): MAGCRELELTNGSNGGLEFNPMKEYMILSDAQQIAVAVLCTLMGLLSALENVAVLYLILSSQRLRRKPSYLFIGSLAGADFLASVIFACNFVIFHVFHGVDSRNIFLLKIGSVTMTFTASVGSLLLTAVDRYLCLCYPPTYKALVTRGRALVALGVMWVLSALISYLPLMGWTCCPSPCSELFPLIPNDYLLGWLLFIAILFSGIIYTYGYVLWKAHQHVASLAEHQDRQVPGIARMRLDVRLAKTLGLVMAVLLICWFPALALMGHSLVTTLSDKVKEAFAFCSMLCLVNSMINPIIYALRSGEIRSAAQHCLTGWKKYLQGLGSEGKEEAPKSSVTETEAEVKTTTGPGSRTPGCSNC

Cannabinoid receptor 2 [5] = molecular target: T1, Cannabinoid receptor 2; experiment: Displacement of [18F]-LU13 from human CB2 receptor transfected in CHO cells membrane homogenate incubated for 90 mins by competitive radioligand binding assay; format: cell membranes
Cannabinoid receptor 2 [6] = molecular target: T1, Cannabinoid receptor 2; experiment: Inhibition of human CB2 receptor assessed as inhibition constant; format: functional
Cannabinoid receptor 2 [7] = molecular target: T1, Cannabinoid receptor 2; experiment: Displacement of [3H]-WIN55212-2 from human CB2 receptor transfected in CHO-K1 cell membrane incubated for 90 mins by Liquid scintillation counter analysis; format: cell membranes
[8] = Metabolic stability in CD-1 mouse plasma assessed as parent compound remaining measured after 30 mins by radio-HPLC analysis; format: ADME, cell-free; conditions: read-out: Stability
[9] = Metabolic stability in CD-1 mouse brain assessed as parent compound remaining measured after 30 mins by radio-HPLC analysis; format: ADME, tissue-based; conditions: read-out: Stability
[10] = Metabolic stability in CD-1 mouse spleen assessed as parent compound remaining measured after 30 mins by radio-HPLC analysis; format: ADME, tissue-based; conditions: read-out: Stability
[11] = Drug uptake in iv dosed Wistar rat brain striatum overexpressing human CB2 receptor (D80N) assessed as time to peak radioactivity measured after 26 mins of post injection by PET imaging analysis; format: ADME, organism-based; conditions: in vivo
[12] = Drug uptake in iv dosed Wistar rat brain striatum overexpressing human CB2 receptor (D80N) assessed as TAC peak standardized uptake of compound by PET imaging analysis; format: ADME, organism-based; conditions: in vivo
[13] = Drug uptake in iv dosed Wistar rat brain contralateral region overexpressing human CB2 receptor (D80N) assessed as time to peak radioactivity measured after 26 mins of post injection by PET imaging analysis; format: ADME, organism-based; conditions: in vivo
[14] = Drug uptake in iv dosed Wistar rat brain contralateral region overexpressing human CB2 receptor (D80N) assessed as TAC peak standardized uptake of compound by PET imaging analysis; format: ADME, organism-based; conditions: in vivo
[15] = MRT in iv dosed Wistar rat brain contralateral region overexpressing human CB2 receptor (D80N) by PET imaging analysis; format: ADME, organism-based; conditions: in vivo
[16] = Drug uptake in iv dosed Wistar rat brain cerebellum overexpressing human CB2 receptor (D80N) assessed as time to peak radioactivity measured after 26 mins of post infection by PET imaging analysis; format: ADME, organism-based; conditions: in vivo
[17] = Drug uptake in iv dosed Wistar rat brain cerebellum overexpressing human CB2 receptor (D80N) assessed as TAC peak standardized uptake of compound by PET imaging analysis; format: ADME, organism-based; conditions: in vivo
[18] = MRT in iv dosed Wistar rat brain cerebellum overexpressing human CB2 receptor (D80N) by PET imaging analysis; format: ADME, organism-based; conditions: in vivo
[19] = tested as the 18F-labelled form

T1 sequence (P34972 whole entry): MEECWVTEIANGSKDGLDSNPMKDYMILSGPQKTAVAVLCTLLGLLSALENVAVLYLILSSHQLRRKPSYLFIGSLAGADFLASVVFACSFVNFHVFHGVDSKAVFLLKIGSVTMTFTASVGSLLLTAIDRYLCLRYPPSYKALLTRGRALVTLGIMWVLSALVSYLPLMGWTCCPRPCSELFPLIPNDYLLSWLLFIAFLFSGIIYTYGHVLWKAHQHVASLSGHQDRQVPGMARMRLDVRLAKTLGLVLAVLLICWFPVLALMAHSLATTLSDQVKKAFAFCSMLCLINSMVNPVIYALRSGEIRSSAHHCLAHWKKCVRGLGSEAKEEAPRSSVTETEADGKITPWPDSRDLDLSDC
Cannabinoid receptor 1, sequence (P21554 whole entry): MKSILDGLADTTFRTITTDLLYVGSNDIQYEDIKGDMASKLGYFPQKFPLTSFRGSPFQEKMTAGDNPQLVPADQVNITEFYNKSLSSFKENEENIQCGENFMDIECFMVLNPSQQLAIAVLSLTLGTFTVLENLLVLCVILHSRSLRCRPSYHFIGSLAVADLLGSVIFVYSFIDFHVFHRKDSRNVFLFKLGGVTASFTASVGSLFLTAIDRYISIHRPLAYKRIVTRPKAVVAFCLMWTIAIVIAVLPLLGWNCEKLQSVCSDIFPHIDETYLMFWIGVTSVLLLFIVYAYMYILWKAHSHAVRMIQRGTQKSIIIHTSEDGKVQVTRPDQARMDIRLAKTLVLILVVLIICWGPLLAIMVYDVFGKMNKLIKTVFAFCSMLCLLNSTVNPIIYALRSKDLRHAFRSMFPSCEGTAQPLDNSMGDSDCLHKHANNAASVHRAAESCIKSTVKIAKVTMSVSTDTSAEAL

| Compound | Ki (Cannabinoid receptor 1) | Ki (Cannabinoid receptor 2 [2]) | further results |
| --- | --- | --- | --- |
| C[C@H]1CC[C@H](NC(=O)c2cc3cc(-c4ccco4)cnc3n(CCCCF)c2=O)CC1 | 49 nM | – | – |
| CCCCOc1c(OC)ccc2cc(C(=O)NC3CCCCC3)c(=O)[nH]c12 | – | – | Ratio Ki (Homo sapiens [1]; tested as the 11C-labelled form): 100 |
| C[C@H]1CC[C@@H](NC(=O)c2cc3cc(-c4ccco4)cnc3n(Cc3ccc(F)cc3)c2=O)CC1 | 5 nM | 915 nM | Ratio Ki (Homo sapiens [3]): > 183 |
| C[C@H]1CC[C@@H](NC(=O)c2cc3cc(-c4ccco4)cnc3n(Cc3ccccc3F)c2=O)CC1 | 65 nM | > 10000 nM | Ratio Ki (Homo sapiens [3]): > 153 |
| C[C@H]1CC[C@@H](NC(=O)c2cc3cc(-c4ccco4)cnc3n(CCCF)c2=O)CC1 | 28 nM | > 10000 nM | – |
| O=C(Nc1cccnc1)c1cc2cccnc2n(CCCCF)c1=O | > 1000 nM | > 10000 nM | – |
| O=C(Nc1ccccc1)c1cc2cccnc2n(CCCCF)c1=O | 2200 nM | > 10000 nM | – |
| O=C(Nc1ccc(F)nc1)c1cc2cccnc2n(CCCCF)c1=O | > 1000 nM | > 10000 nM | – |
| O=C(NC12CC3CC(CC(C3)C1)C2)c1cc2cccnc2n(CCCCF)c1=O | 0.6 nM | > 1000 nM | Ratio Ki (Homo sapiens [3]): > 1000; IC50 (Cannabinoid receptor 2 [4]): 0.22 nM; IC50 (Cannabinoid receptor 2 [5]): 1.17 nM |
| C[C@H]1CC[C@@H](NC(=O)c2cc3cccnc3n(CCCCF)c2=O)CC1 | 6 nM | > 1000 nM | Ratio Ki (Homo sapiens [3]): > 167 |
| O=C(Nc1ccncc1)c1cc2cccnc2n(CCCCF)c1=O | > 1000 nM | > 10000 nM | – |
| O=C(NCc1ccc(F)cc1)c1cc2cccnc2n(CCCCF)c1=O | 1100 nM | > 10000 nM | – |
| Cc1s/c(=N\C(=O)C2C(C)(C)C2(C)C)n(CCCC[18F])c1C | – | 0.4 nM | – |
| O=C(Nc1ccc(F)cc1)c1cc2cccnc2n(CCCCF)c1=O | 3900 nM | > 10000 nM | – |
| O=C(NC12CC3CC(CC(C3)C1)C2)c1cc2cccnc2n(Cc2ccc(F)cc2)c1=O | 1.5 nM | > 1000 nM | – |
| [2H]C([2H])([18F])C([2H])([2H])C([2H])([2H])OC(=O)C(CC)(CC)NC(=O)c1ccc(N2CC(OC)C2)c(OC[C@H]2C[C@@H]2CO)n1 | – | – | Ki (Cannabinoid receptor 2 [6]): 0.6 nM |
| C[C@H]1CC[C@@H](NC(=O)c2cc3cc(-c4ccco4)cnc3n(Cc3cccc(F)c3)c2=O)CC1 | 2.9 nM | > 10000 nM | Ratio Ki (Homo sapiens [3]): > 1000 |

| Compound | Ki (Cannabinoid receptor 1) | Ki (Cannabinoid receptor 2 [2]) | further results |
| --- | --- | --- | --- |
| C[C@H]1CC[C@H](NC(=O)c2cc3cccnc3n(CCCF)c2=O)CC1 | 4600 nM | – | – |
| C[C@H]1CC[C@@H](NC(=O)c2cc3cccnc3n(CCOCCF)c2=O)CC1 | 13 nM | > 10000 nM | Ratio Ki (Homo sapiens [3]): > 714 |
| CC1CCC(NC(=O)c2cc3cc(Br)cnc3n(CCCCF)c2=O)CC1 (mixture of isomers) | 4.8 nM | > 10000 nM | – |
| C[C@H]1CC[C@H](NC(=O)c2cc3cc(-c4ccco4)cnc3n(Cc3cccc(F)c3)c2=O)CC1 | 5000 nM | – | – |
| C[C@H]1CC[C@@H](NC(=O)c2cc3cc(-c4ccco4)cnc3n(CCCCF)c2=O)CC1 | 3.3 nM | > 10000 nM | Ratio Ki (Homo sapiens [3]): > 303 |
| O=C(NC12CC3CC(CC(C3)C1)C2)c1cc2cccnc2n(CCOCCF)c1=O | 3.9 nM | > 1000 nM | – |
| COc1cccc2c(=O)c(C(=O)NC34CC5CC(CC(C5)C3)C4)cn(CCOCCC[18F])c12 | – | – | Ki (Cannabinoid receptor 2 [7]): 0.9 nM |
| C[C@H]1CC[C@H](NC(=O)c2cc3cccnc3n(CCOCCF)c2=O)CC1 | 780 nM | – | – |
| C[C@H]1CC[C@H](NC(=O)c2cc3cc(-c4ccco4)cnc3n(Cc3ccccc3F)c2=O)CC1 | > 10000 nM | – | – |
| CCC(CC)(NC(=O)c1ccc(N2CC(OC)C2)c(OC[C@H]2C[C@@H]2CO)n1)C(=O)OCCCF | – | – | Ratio Ki (Homo sapiens [1]; tested as the 18F, 2H-labelled form): > 10000 |
| C[C@H]1CC[C@H](NC(=O)c2cc3cc(-c4ccco4)cnc3n(Cc3ccc(F)cc3)c2=O)CC1 | 86 nM | – | – |
| COc1cccc2c(=O)c(C(=O)NC34CC5CC(CC(C5)C3)C4)cn(CCOCCCF)c12 | – | – | Ratio Ki (Homo sapiens [3]; [19]): > 10000 |
| [2H]C([2H])([18F])C([2H])([2H])C([2H])([2H])C([2H])([2H])n1c(=O)c(C(=O)NC23CC4CC(CC(C4)C2)C3)cc2cccnc21 | – | – | remaining at 0.5 h [8]: 23%; remaining at 0.5 h [9]: 85%; remaining at 0.5 h [10]: 95%; Drug uptake [11]: 26 min; Drug uptake [12]: 3.6 SUV.min; Drug uptake [13]: 6.1 min; Drug uptake [14]: 1.7 SUV.min; MRT [15]: 23 min; Drug uptake [16]: 5.4 min; Drug uptake [17]: 1.8 SUV.min; MRT [18]: 23 min |
| C[C@H]1CC[C@@H](NC(=O)c2cc3cccnc3n(CCCF)c2=O)CC1 | 115 nM | – | – |
| Cc1s/c(=N\C(=O)C2C(C)(C)C2(C)C)n(CCCCF)c1C | – | – | Ratio Ki (Homo sapiens [3]; [19]): 1000 |
| C[C@H]1CC[C@H](NC(=O)c2cc3cc(-c4ccco4)cnc3n(CCCF)c2=O)CC1 | 6800 nM | – | – |
| CC1CCC(NC(=O)c2cc3cc(Br)cnc3n(Cc3ccc(F)cc3)c2=O)CC1 (mixture of isomers) | 1.7 nM | > 155 nM | Ratio Ki (Homo sapiens [3]): 91 |
